Blank lines part the entries; values can stand above or below the compound they belong to.
Legend:
[1] = Antioxidant capacity by 2,2-diphenyl-1-picrylhydrazyl (DPPH) assay; format: biochemical; conditions: molar ratio DPPH:TCP 1:0.3, 30 minutes in the dark, 517 nm; mean ± s.d. of two independent experiments
Experimental: DPPH assay is a well-known and established method to measure antioxidant capacity of a molecule. […] When DPPH is in its oxidated form presents a violet color that changes to yellow/white when is reduced. This color change can be followed using UV-Vis spectroscopy. The assay was carried out in ethanol always maintaining a molar ratio DPPH: TCP of 1:0.3. In order to have 3 mL of final volume, DPPH was diluted in ethanol to have a final concentration of 63.4 μM. Free TCP and TCP DELOS-NVs were diluted to have a final concentration of 19 µM of TCP. Each solution was then mixed and kept at room temperature for 30 minutes in the dark. The absorbance of the solution was measured at 517 nm using a Thermo Scientific™ Evolution™ 201/220 UV-Visible spectrophotometer (Thermo Scientific). The percentage of TCP antioxidant capacity was calculated using the Equation 3, where Abscontrol is the absorbance at 517 nm of DPPH in ethanol and Abssample is the absorbance at 517 nm of the sample prepared as described (free TCP or TCP DELOS-NVs with DPPH).
The antioxidant capacity of TCP was evaluated once it was integrated in the NVs to verify that the molecule was still active after the encapsulation. The antioxidant capacity was measured by the 2,2-diphenyl-1-picrylhydrazyl (DPPH) assay. DPPH is a stable free radical that can be reduced in the presence of hydrogen-donating antioxidants such as TCP. […]

[2] = Entrapment efficiency (EE) by UV-Vis spectroscopy; format: physicochemical
Experimental: Entrapment efficiency (EE) of each active was determined by UV-Vis absorbance using an UV-Vis spectrophotometer (Thermo Scientific™ Evolution™ 201 UV-Visible Spectrophotometers, Thermo Scientific). For lipophilic actives (7-DHC, CBD, TCP, DiD and Dil) Vs membrane was dissociated to release the active by diluting the sample in ethanol at 80% (v/v) until a value of absorption below 1 and inside the calibration curve obtained. The concentration of each active was determined using a calibration curve, using the same media than the corresponding Vs system. The active was quantified before and after filtering process and both values were used to calculate the EE using Equation 1 (as described herein). As the lipophilic molecules are not soluble in aqueous media, it was considered that the filtered sample contained only the integrated active, since all the precipitated and non-integrated active should remain in the filter.
A different protocol was followed for hydrophilic actives (NCA, AG and MTX), in which, after the Vs filtration process, another step was applied to separate the non-integrated active. For NCA and AG, an ultracentrifugation step of the filtered sample was performed (6h, 4° C., 600000g) (Sorvall Discovery M150 Micro-Ultracentrifuge, Thermo Scientific). […]

[3] = Entrapment efficiency (EE) by fluorescence spectroscopy (proteins); format: physicochemical
Experimental: iii) Entrapment efficiency (EE) by fluorescence spectroscopy: Entrapment efficiency (EE) of both proteins was determined by fluorescence spectroscopy using a Varian Cary Eclipse (Agilent Technolo-gies, Santa Clara, USA). In both cases, the separation of the non-integrated protein from that integrated in Vs was done by TFF (KrosFlo® Research 11i TFF diafiltration system (KR2i), with a mPES filter hollow column cut-off 300 KDa (C04-E100-05-N, Spectrum Labs, SL). Then, the permeate fraction was recovered and analyzed by fluorescence, exciting the proteins at 278 nm. The concentration was calculated using a calibration curve using the same media of the corresponding Vs system. The entrapment efficiency was then calculated using Equation 2, as described herein.

Compound: Cc1c(C)c2c(c(C)c1O)CCC(C)(CCCC(C)CCCC(C)CCCC(C)C)O2 (racemic) [Free TCP, DL-alpha-Tocopherol]
Antioxidant capacity (%) [1]: 60 ± 9%

Compound: C=C(C)[C@@H]1CCC(C)=C[C@H]1c1c(O)cc(CCCCC)cc1O [CBD, cannabidiol]
EE [%] ([2]; active-loaded Sit:LGC (1:1) and Sit:LGL:LGC (1:0.8:0.2) Vs): 22-33%

EE [%] ([2]; active-loaded Sit:LGL-p:DC-Chol (0.8:1:0.2) Vs): 88%
Compound: CN(Cc1cnc2nc(N)nc(N)c2n1)c1ccc(C(=O)N[C@@H](CCC(=O)O)C(=O)O)cc1 [MTX, Methotrexate]

Compound: HGH: Human growth hormone, small protein, encapsulated active
EE [%] ([3]; protein (HGH) in Sit:LGL-p:DC-Chol (0.8:1:0.2) Vs): over 99%

Compound: b-FGF: basic fibroblast growth factor, small protein, encapsulated active
EE [%] ([3]; protein (b-FGF) in negatively charged Sit:LGC (1:1) Vs): > 99%

Source: patent US20260041637A1, “VESICLES BASED ON GLUCOSE-DERIVED SURFACTANTS AND PHYTOSTEROLS” (NANOMOL TECHNOLOGIES, S.L., priority 2022, published 2026)
